Values of other authors, collected in PMC3989431 (Peptides, 2013).

System: H. zea pupae
Details: earlier in vivo bioassay

**Q.** Which “in vivo activity” value does the source give for AWFGPRLa here?
**A.** The value was “without in vivo activity”.
